In patent US12533386B2, “Preparation of black tea extract with high theaflavin content and use thereof” (Huanggang Normal University, priority 2022, dated 2026):

System: atherosclerosis in ApoE−/− (ApoE-KO) mice
Assay: Atherosclerosis mouse model (ApoE-KO, high fat diet), histological analyses
Assay type: in vivo
Details: 2.5 mg and 7.5 mg theaflavin treatment, especially high dose of 7.5 mg; versus high fat diet group
Method: Twenty four model male ApoE−/− (ApoE-KO) mice were fed a high fat diet for 6 weeks to develop established atherosclerosis. At 8 weeks of age, they were divided into 4 treatment groups: control, high fat diet, 2.5 mg theaflavin treatment, and 7.5 mg theaflavin treatment. 8 weeks after commencement of the study, ApoE-KO mice were anaesthetized. All animal experiments were performed in accordance with the Guidelines for the Care and Use of Laboratory Animals, Ministry of Science and Technology, China. This study was approved by the Animal Care and Scientific Committee of Huanggang Normal University, Hubei, China.

Q: With O=c1c(O)cc([C@H]2Oc3cc(O)cc(O)c3C[C@H]2O)cc2c([C@H]3Oc4cc(O)cc(O)c4C[C@H]3O)cc(O)c(O)c12 [theaflavin] as the compound, how does the “tissue damages in histology (aorta, adipose)” value read?
A: The value was “could reverse some of the tissue damages”.
